From patent publication EP0938471B1, “THE PREPARATION AND USE OF ORTHO-SULFONAMIDO ARYL HYDROXAMIC ACIDS AS MATRIX METALLOPROTEINASE AND TACE INHIBITORS” (priority 1996, dated 1998) come the findings set out here.

Where a name gives a salt, the structure may show the parent alone. Read-outs that look alike come from different tables or passages of the source. A value given as a limit tells only on which side of the number the result lay.

Broadly, the IC50 is the concentration that gives 50% inhibition. As usually defined, the inhibition is the relative decrease from the control value, in per cent. A high value points to strong suppression.

Common to all, as to format: biochemical
One experiment has as its target T1, MMP-1 (Homo sapiens, UniProt P03956).
T1 sequence (P03956 100-469): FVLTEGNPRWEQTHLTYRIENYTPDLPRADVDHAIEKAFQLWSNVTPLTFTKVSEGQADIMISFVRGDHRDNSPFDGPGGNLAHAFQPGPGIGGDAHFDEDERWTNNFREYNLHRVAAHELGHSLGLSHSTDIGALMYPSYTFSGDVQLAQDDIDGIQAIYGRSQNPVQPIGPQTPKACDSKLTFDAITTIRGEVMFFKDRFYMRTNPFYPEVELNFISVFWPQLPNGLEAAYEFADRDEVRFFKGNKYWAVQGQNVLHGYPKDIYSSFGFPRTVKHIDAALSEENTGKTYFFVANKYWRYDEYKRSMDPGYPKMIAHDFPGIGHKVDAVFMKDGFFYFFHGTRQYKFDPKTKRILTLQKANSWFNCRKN
Nature of the experiment: MMP-1 inhibition (thiopeptide or fluorescent peptide substrate assay). Conditions: read-out: MMP-1 IC50.

For a further experiment, the target named is MMP-9 (Homo sapiens, UniProt P14780). Description: MMP-9 inhibition (thiopeptide or fluorescent peptide substrate assay).
In another experiment the target is TACE (Homo sapiens, UniProt P78536). Description: TACE inhibition (fluorescent peptidyl substrate). The following applies: for inhibition at 1 µM: at 1µM concentration.
A further experiment concerns the target MMP-13 (Homo sapiens, UniProt P45452). Nature of the experiment: MMP-13 inhibition (thiopeptide or fluorescent peptide substrate assay).

Sequence of TACE (P78536 215-824): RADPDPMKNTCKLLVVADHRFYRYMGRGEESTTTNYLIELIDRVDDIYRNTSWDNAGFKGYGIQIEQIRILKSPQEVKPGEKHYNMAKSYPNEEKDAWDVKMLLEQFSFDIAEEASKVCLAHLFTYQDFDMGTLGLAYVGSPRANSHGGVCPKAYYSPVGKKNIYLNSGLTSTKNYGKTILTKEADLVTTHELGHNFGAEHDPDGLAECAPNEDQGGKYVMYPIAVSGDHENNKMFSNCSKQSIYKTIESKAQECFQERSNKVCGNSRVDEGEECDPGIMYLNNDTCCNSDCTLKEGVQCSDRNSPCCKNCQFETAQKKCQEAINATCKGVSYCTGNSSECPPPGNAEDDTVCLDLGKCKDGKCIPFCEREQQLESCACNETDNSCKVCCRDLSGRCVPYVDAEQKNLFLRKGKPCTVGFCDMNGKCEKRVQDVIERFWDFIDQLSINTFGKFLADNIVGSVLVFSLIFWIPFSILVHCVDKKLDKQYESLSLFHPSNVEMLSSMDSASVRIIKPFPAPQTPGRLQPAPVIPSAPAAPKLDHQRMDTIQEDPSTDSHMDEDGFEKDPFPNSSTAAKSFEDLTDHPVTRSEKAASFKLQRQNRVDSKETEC
Sequence of MMP-9 (P14780 94-707): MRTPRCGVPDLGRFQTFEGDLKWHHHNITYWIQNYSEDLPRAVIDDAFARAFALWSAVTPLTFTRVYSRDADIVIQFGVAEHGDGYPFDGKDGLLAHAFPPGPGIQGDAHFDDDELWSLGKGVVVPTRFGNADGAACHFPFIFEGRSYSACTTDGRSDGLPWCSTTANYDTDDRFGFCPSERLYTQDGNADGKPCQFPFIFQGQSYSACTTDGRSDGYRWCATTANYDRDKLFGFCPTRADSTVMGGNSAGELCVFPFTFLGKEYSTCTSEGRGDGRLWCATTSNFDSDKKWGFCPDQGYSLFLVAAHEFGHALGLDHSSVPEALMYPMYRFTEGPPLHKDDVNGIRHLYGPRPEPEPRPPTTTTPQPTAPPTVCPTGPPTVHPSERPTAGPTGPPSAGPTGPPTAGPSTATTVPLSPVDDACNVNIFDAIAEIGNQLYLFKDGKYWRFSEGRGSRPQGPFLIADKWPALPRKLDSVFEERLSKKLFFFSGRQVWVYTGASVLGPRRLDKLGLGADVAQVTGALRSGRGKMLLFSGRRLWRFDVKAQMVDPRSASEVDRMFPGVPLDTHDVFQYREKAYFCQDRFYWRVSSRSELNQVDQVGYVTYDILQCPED
Description for MMP-13: The enzyme activity is measured by the rate of the color increase. The thiopeptide substrate is made up fresh as a 20 mM stock in 100% DMSO and the DTNB is dissolved in 100% DMSO as a 100 mM stock and stored in the dark at room temperature. Both the substrate and DTNB are diluted together to 1 mM with substrate buffer (50 mM HEPES pH 7.5, 5 mM CaCl2) before use. […] Alternatively, a fluorescent peptide substrate is used. In this assay, the peptide substrate contains a fluorescent group and a quenching group. Upon cleavage of the substrate by an MMP, the fluorescence that is generated is quantitated on the fluorescence plate reader. […] The substrate is dissolved in methanol and stored frozen in 1 mM aliquots. For the assay, substrate and enzymes are diluted in HCBC buffer to the desired concentrations. Compounds are added to the 96 well plate containing enzyme and the reaction is started by the addition of substrate. […] For either the thiopeptide or fluorescent peptide assays, the slope of the line is calculated and represents the reaction rate. […] The mean (x±sem) of the control rate is calculated and compared for statistical significance (p<0.05) with drug-treated rates using Dunnett's multiple comparison test.

In the case of “3-Methyl-2-[4-(pyridin-4-yloxy)-benzensulfonylamino]-N-hydroxy-benzamide [Example 417]”, the IC50 at MMP-1 was found to be 3240 nM; at MMP-9 (read-out: MMP-9 IC50), 6.8 nM.
Consider `COc1ccc(S(=O)(=O)N(Cc2ccccc2)c2ccccc2C(=O)NO)cc1` [Example 23, 2-[Benzyl-(4-methoxy-benzenesulfonyl)-amino]-N-hydroxy-benzamide], for which the IC50 is 639 nM on MMP-1, 650 nM against MMP-9 and > 1000 nM at TACE (read-out: TACE IC50).
For `COc1ccc(S(=O)(=O)N(Cc2ccccc2)c2c(Cl)cccc2C(=O)NO)cc1` [Example 24, 2-[Benzyl-(4-methoxy-benzenesulfonyl)-amino]-3-chloro-N-hydroxy-benzamide], the half-inhibitory concentration (IC50) came out at 398 nM at MMP-1 and 31 nM on MMP-9 (read-out: MMP-9 IC50).
Take `COc1ccc(S(=O)(=O)N(Cc2ccccc2)c2c(C)cccc2C(=O)NO)cc1` [Example 28, 2-[Benzyl-(4-methoxy-benzenesulfonyl)-amino]-N-hydroxy-3-methyl-benzamide]: the IC50 worked out at 50 nM at MMP-13 and 460 nM on TACE (read-out: TACE IC50).
With `COc1ccc(S(=O)(=O)N(Cc2ccccc2)c2c(OCC(=O)NO)cccc2C(=O)NO)cc1` [Example 54, 2-[Benzyl-(4-methoxy-benzenesulfonyl)-amino]-N-hydroxy-3-hydroxycarbamoylmethoxy-benzamide], the IC50 worked out at 24 nM at MMP-1, 3 nM on MMP-9 (read-out: MMP-9 IC50) and 4 nM at MMP-13.
In the case of `CCCCC#Cc1cc(C)c(N(Cc2ccccc2)S(=O)(=O)c2ccc(OC)cc2)c(C(=O)NO)c1` [Example 77, 2-[Benzyl-(4-methoxy-benzenesulfonyl)-amino]-5-hex-1-ynyl-N-hydroxy-3-methyl-benzamide], the half-inhibitory concentration (IC50) on MMP-9 (read-out: MMP-9 IC50) is 131 nM.
As for `COc1ccc(S(=O)(=O)N(Cc2cccnc2)c2ccccc2C(=O)NO)cc1` [Example 85, N-Hydroxy-2-[(4-methoxy-benzenesulfonyl)-pyridin-3-ylmethyl-amino]-benzamide], the IC50 on MMP-9 (read-out: MMP-9 IC50) is 663 nM; on TACE (read-out: TACE IC50) it was > 1000 nM.
With `COc1ccc(S(=O)(=O)N(Cc2ccccc2)c2c(OC)cccc2C(=O)NO)cc1` [Example 101, 2-[Benzyl-(4-methoxy-benzenesulfonyl)-amino]-N-hydroxy-3-methoxy-benzamide], the IC50 worked out at 267 nM at MMP-1, 23 nM against MMP-9 and 422 nM on TACE (read-out: TACE IC50).
Turning to `COc1ccc(S(=O)(=O)N(Cc2ccccc2)c2c(C(=O)NO)ccc(Cl)c2C)cc1` [Example 102, 2-[Benzyl-(4-methoxy-benzenesulfonyl)-amino]-4-chloro-N-hydroxy-3-methyl-benzamide], the half-inhibitory concentration (IC50) on MMP-1 is 314 nM; at MMP-9 (read-out: MMP-9 IC50) it was 29 nM; on TACE (read-out: TACE IC50), 162 nM.
Regarding `COc1ccc(S(=O)(=O)N(Cc2ccccc2)c2c(C(=O)NO)cccc2C(F)(F)F)cc1` [Example 125, 2-[Benzyl-(4-methoxy-benzenesulfonyl)-amino]-N-hydroxy-3-trifluoromethyl-benzamide], the IC50 at MMP-1 was > 1000 nM; at MMP-13 it was 134 nM; on TACE (read-out: TACE IC50), 300 nM.
In the case of `COc1ccc(S(=O)(=O)N(Cc2ccccc2)c2c(C(=O)NO)cc(OC)c(OC)c2OC)cc1` [Example 156, 2-[Benzyl-(4-methoxy-benzenesulfonyl)-amino]-N-hydroxy-3,4,5-trimethoxy-benzamide], the half-inhibitory concentration (IC50) at MMP-1 is > 1000 nM; on MMP-9 (read-out: MMP-9 IC50), 104 nM; on MMP-13 (read-out: MMP-13 IC50), 134 nM.
With `COc1ccc(S(=O)(=O)N(Cc2cccnc2)c2c(C(=O)NO)cc(OC)c(OC)c2OC)cc1` [Example 158, N-Hydroxy-3,4,5-trimethoxy-2-[(4-methoxy-benzenesulfonyl)-pyridin-3-ylmethyl-amino]-benzamide], the IC50 on MMP-1 is > 1000 nM; at MMP-9 (read-out: MMP-9 IC50), 11 nM; at MMP-13 (read-out: MMP-13 IC50) it was 62 nM.
Take `COc1ccc(S(=O)(=O)N2CCCOc3cccc(C(=O)NO)c32)cc1` [Example 165, 5-(4-Methoxy-benzenesulfonyl)-2,3,4,5-tetrahydro-1,5-benzoxazepine-6-carboxylic acid hydroxyamide]: the figures for the IC50 on MMP-9 (read-out: MMP-9 IC50) and at MMP-13 (read-out: MMP-13 IC50) were 286 nM and 350 nM, respectively.
With `COc1ccc(S(=O)(=O)N2Cc3ccccc3COc3cccc(C(=O)NO)c32)cc1` [Example 166, 12-(4-Methoxy-benzenesulfonyl)-11,12-dihydro-6H-dibenz[b,f][1,4]oxazocine-1-carboxylic acid hydroxyamide], the values for the IC50 on MMP-9 (read-out: MMP-9 IC50) and at MMP-13 (read-out: MMP-13 IC50) were 203 nM and > 300 nM, respectively.
In the case of `COc1ccc(S(=O)(=O)N2CCCCOc3cccc(C(=O)NO)c32)cc1` [Example 167, 6-(4-Methoxy-benzenesulfonyl)-3,4,5,6-tetrahydro-2H-1,6-benzoxazocine-7-carboxylic acid hydroxyamide], the half-inhibitory concentration (IC50) at MMP-9 (read-out: MMP-9 IC50) was found to be 42 nM; at MMP-13 (read-out: MMP-13 IC50), 178 nM.
For `COc1ccc(S(=O)(=O)N(C)c2c(CN3CCN(C)CC3)cccc2C(=O)NO)cc1` [Example 194, N-Hydroxy-2-[(4-methoxybenzenesulfonyl)-methylamino]-3-(4-methylpiperazin-1-ylmethyl)-benzamide], the IC50 at MMP-1 came out at 306 nM; on MMP-13 (read-out: MMP-13 IC50), 12 nM; at TACE (read-out: TACE IC50), 154 nM.
For the compound `CCN(CC)Cc1cc(C)c(N(Cc2ccccc2)S(=O)(=O)c2ccc(OC)cc2)c(C(=O)NO)c1` [Example 282, 2-[Benzyl-(4-methoxy-benzenesulfonyl)-amino]-5-diethylaminomethyl-N-hydroxy-3-methyl-benzamide], the IC50 stood at 1050 nM at MMP-1 and 113 nM on MMP-13 (read-out: MMP-13 IC50). Moreover, at 1 µM the inhibition on TACE was 44%.
Regarding `CCOc1ccc(S(=O)(=O)N(Cc2ccccc2)c2c(C)cc(C)cc2C(=O)NO)cc1` [Example 302, 2-[Benzyl-(4-ethoxy-benzenesulfonyl)-amino]-N-hydroxy-3,5-dimethyl-benzamide], the IC50 on MMP-1 is 291 nM; on MMP-13 (read-out: MMP-13 IC50) it was 24 nM; on TACE (read-out: TACE IC50) it was 173 nM.
For `CCCOc1ccc(S(=O)(=O)N(Cc2ccccc2)c2c(C)cc(C)cc2C(=O)NO)cc1` [Example 303, 2-[Benzyl-(4-propoxy-benzenesulfonyl)-amino]-N-hydroxy-3,5-dimethyl-benzamide], the results for the IC50 on MMP-1, on MMP-9 (read-out: MMP-9 IC50) and on MMP-13 (read-out: MMP-13 IC50) were 2780 nM, 64 nM and 104 nM, respectively.
As to `Cc1cc(C)c(N(Cc2ccccc2)S(=O)(=O)c2ccc(OC(C)C)cc2)c(C(=O)NO)c1` [Example 304, 2-[Benzyl-(4-isopropoxy-benzenesulfonyl)-amino]-N-hydroxy-3,5-dimethyl-benzamide], the IC50 came to 4100 nM at MMP-1 and 305 nM on MMP-13 (read-out: MMP-13 IC50). This compound also came in with an inhibition at 1 µM against TACE of 25%.
Turning to `COC(=O)c1cccc(C(=O)NO)c1N(Cc1cccnc1)S(=O)(=O)c1ccc(OC)cc1` [Example 369, N-Hydroxy-2-[(4-methoxy-benzenesulfonyl)-pyridin-3-ylmethyl-amino]-isophthalamic acid methyl ester], the IC50 came to 207 nM at MMP-1, 6.4 nM on MMP-9 (read-out: MMP-9 IC50) and 38 nM against TACE.
Turning to `COc1ccc(S(=O)(=O)N(Cc2ccc(N3CCN(C)CC3)cc2)c2c(C)cccc2C(=O)NO)cc1` [Example 382, N-Hydroxy-2-{(4-methoxy-benzenesulfonyl)-[4-(4-methyl-piperazin-1-yl)-benzyl]-amino}-3-methyl-benzamide], the half-maximal inhibitory concentration (IC50) at MMP-9 (read-out: MMP-9 IC50) stood at 6.5 nM; against MMP-13, 20 nM; on TACE it was 146 nM.
With `COc1ccc(S(=O)(=O)N(Cc2cccnc2)c2c(C)cc(-c3ccccc3)cc2C(=O)NO)cc1` [Example 397, 4-[(4-Methoxy-benzenesulfonyl)-pyridin-3-ylmethyl-amino]-5-methyl-biphenyl-3-carboxylic acid hydroxyamide hydrochloride salt], the IC50 was determined as 3 nM against MMP-9 and 64 nM against TACE.
For `COc1ccc(S(=O)(=O)N(Cc2cccnc2)c2c(C)cc(-c3ccsc3)cc2C(=O)NO)cc1` [Example 398, N-Hydroxy-2-[(4-methoxy-benzenesulfonyl)-pyridin-3-ylmethyl-amino]-3-methyl-5-thiophen-3-yl-benzamide hydrochloride salt], the figures for the concentration for half-maximal inhibition (IC50) on MMP-1, at MMP-9 (read-out: MMP-9 IC50) and on TACE (read-out: TACE IC50) were 85 nM, 2 nM and 56 nM, respectively.
Turning to `COc1ccc(S(=O)(=O)N(Cc2cccnc2)c2c(C)cc(-c3cccc(C(F)(F)F)c3)cc2C(=O)NO)cc1` [Example 406, 4-[(4-Methoxy-benzenesulfonyl)-pyridin-3-ylmethyl-amino]-5-methyl-3'-trifluoromethyl-biphenyl-3-carboxylic acid hydroxyamide hydrochloride salt], the IC50 at MMP-9 (read-out: MMP-9 IC50) is 1.1 nM.
Take `Cc1cccc(C(=O)NO)c1N(Cc1ccc(Cl)cc1)S(=O)(=O)c1ccc(-c2ccccn2)s1` [Example 407, 2-[(4-Chloro-benzyl)-(5-pyridin-2-yl-thiophene-2-sulfonyl)-amino]-N-hydroxy-3-methyl-benzamide]: the IC50 amounted to 1690 nM at MMP-1, 199 nM on MMP-9 (read-out: MMP-9 IC50) and 35 nM at MMP-13 (read-out: MMP-13 IC50).
Turning to `Cc1ccc(CN(c2c(C)cccc2C(=O)NO)S(=O)(=O)c2ccc(-c3ccccn3)s2)cc1C` [Example 408, 2-[(3,4-Dimethyl-benzyl)-(5-pyridin-2-yl-thiophene-2-sulfonyl)-amino]-N-hydroxy-3-methyl-benzamide], the IC50 is 3450 nM at MMP-1, 731 nM at MMP-9 (read-out: MMP-9 IC50) and 148 nM at MMP-13 (read-out: MMP-13 IC50).
